Molecular target: T1, partially purified aldose reductase enzyme obtained from human placenta (Homo sapiens, UniProt P15121)
T1 construct: partially purified aldose reductase enzyme obtained from human placenta; from tissue; host or cells: human placenta
Assay: inhibition of aldose reductase enzyme activity (procedure of S. Hayman et al. as modified by K. Sestanj et al.)
Assay type: biochemical
Conditions: read-out: Percent Inhibition (%) of aldose reductase enzyme activity; for inhibition at 10 µM: 10^-5 M; for inhibition at 1 µM: 10^-6 M; for inhibition at 0.1 µM: 10^-7 M
From the text: Hayman et al., as described in the Journal of Biological Chemistry, Vol. 240, p. 877 (1965) and as modified by K. Sestanj et al. in U.S. Pat. […] In every case, the substrate employed was partially purified aldose reductase enzyme obtained from human placenta.

Structure (SMILES)	inhibition at 10 µM [%]	inhibition at 1 µM [%]	inhibition at 0.1 µM [%]
O=C(O)Cc1nn(Cc2nc3cc(F)ccc3s2)c(=O)c2cccnc12 [Example 16, 6-(5-fluorobenzothiazole-2-ylmethyl)-5-oxo-6H-pyrido[2,3-d]pyridazine-8-ylacetic acid]	94	91	90
O=C(O)Cc1nn(Cc2nc3cc(C(F)(F)F)ccc3s2)c(=O)c2cccnc12 [Example 15, 6-(5-trifluoromethylbenzothiazole-2-ylmethyl) -5-oxo-6H-pyrido[2,3-d]pyridazine-8-ylacetic acid]	88	81	74
O=C(O)Cc1nn(Cc2nc3cc(F)cc(F)c3s2)c(=O)c2cccnc12 [Example 17]	75	65	39

Next, values leading:

inhibition at 10 µM [%]	inhibition at 1 µM [%]	inhibition at 0.1 µM [%]	Structure (SMILES)
77	72	43	O=C(O)Cc1nn(Cc2noc(-c3ccccc3C(F)(F)F)n2)c(=O)c2cccnc12 [Example 20, 6-[5-(2-trifluoromethylphenyl)-1,2,4-oxadiazole-3-ylmethyl]-5-oxo-6H-pyrido[2,3-d]pyridazine-8-ylacetic acid]
93	87	31	O=C(O)Cc1nn(Cc2nc3cc(Br)ccc3o2)c(=O)c2cccnc12 [Example 18, 6-(5-bromobenzoxazole-2-ylmethyl)-5-oxo-6H-pyrido[2,3-d]pyridazine-8-ylacetic acid]
86	76	30	O=C(O)Cc1nn(Cc2ccc(Br)cc2F)c(=O)c2cccnc12 [Example 21, 6-(4-bromo-2-fluorobenzyl)-5-oxo-6H-pyrido[2,3-d]pyridazine-8-ylacetic acid]
80	60	8	O=C(O)Cc1nn(Cc2cc3c(Cl)cccc3s2)c(=O)c2cccnc12 [Example 19, 6-(4-chlorobenzothiophene-2-ylmethyl)-5-oxo-6H-pyrido[2,3-d]pyridazine-8-ylacetic acid]

— US4996204A, “Pyrido[2,3-d]pyridazinones as aldose reductase inhibitors” (Pfizer Inc., priority 1989, dated 1991)
